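In this assay, cells in 96-well plates receive the compound at five concentrations for 48 hours. Endpoints are linearly interpolated between the surrounding concentrations. At the GI50, growth is halved. Definition used: TGI = concentration required for complete inhibition of growth.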
Key:
Assay in all cases: growth of human tumour cells (NCI), 48 h
[1] = test system: A498 renal
[2] = test system: A549 NSCLC
[3] = test system: ACHN renal
[4] = test system: BT-549 breast
[5] = test system: CAKI-1 renal
[6] = test system: CCRF-CEM leukemia
[7] = test system: COLO 205 colon
[8] = test system: DU-145 prostate
[9] = test system: EKVX NSCLC
[10] = test system: HCC-2998 colon
[11] = test system: HCT-116 colon
[12] = test system: HCT-15 colon
[13] = test system: HL-60(TB) leukemia
[14] = test system: HOP-62 NSCLC
[15] = test system: HOP-92 NSCLC
[16] = test system: HS 578T breast
[17] = test system: HT29 colon
[18] = test system: IGROV1 ovarian
[19] = test system: K-562 leukemia
[20] = test system: KM12 colon
[21] = test system: LOX IMVI melanoma
[22] = test system: M14 melanoma
[23] = test system: MALME-3M melanoma
[24] = test system: MCF7 breast
[25] = test system: MDA-MB-231 breast
[26] = test system: MDA-MB-435
[27] = test system: MOLT-4 leukemia
[28] = test system: NCI-H226 lung
[29] = test system: NCI-H23 lung
[30] = test system: NCI-H460 lung
[31] = test system: NCI-H522 lung
[32] = test system: NCI/ADR-RES ovarian
[33] = test system: OVCAR-3 ovarian
[34] = test system: OVCAR-4 ovarian
[35] = test system: OVCAR-8 ovarian
[36] = test system: PC-3 prostate
[37] = test system: RPMI-8226 leukemia
[38] = test system: RXF 393 renal
[39] = test system: SF-268 CNS
[40] = test system: SF-295 CNS
[41] = test system: SF-539 CNS
[42] = test system: SK-MEL-2 melanoma
[43] = test system: SK-MEL-28 melanoma
[44] = test system: SK-MEL-5 melanoma
[45] = test system: SK-OV-3 ovarian
[46] = test system: SN12C renal
[47] = test system: SNB-19 CNS
[48] = test system: SNB-75 CNS
[49] = test system: SR leukemia
[50] = test system: SW-620 colon
[51] = test system: T-47D breast
[52] = test system: TK-10 renal
[53] = test system: U251 CNS
[54] = test system: UACC-257 melanoma
[55] = test system: UACC-62 melanoma
[56] = test system: UO-31 renal

Compound `O=C(c1ccccc1)c1nn(-c2cccc(Cl)c2)c2nc3nc(-c4ccccc4)cc(=O)n3nc12` has a GI50 [1] of over 25 µM, a TGI [1] of over 25 µM and a GI50 [2] of over 25 µM. The TGI [2] was over 25 µM, the GI50 [3] was over 25 µM and the TGI [3] was over 25 µM. For the same compound, the GI50 [4] was over 25 µM, the TGI [4] was over 25 µM and the GI50 [5] was over 25 µM. It also gave a TGI [5] of over 25 µM, a GI50 [6] of over 25 µM and a TGI [6] of over 25 µM. For the same compound, the GI50 [7] was over 25 µM, the TGI [7] was over 25 µM and the GI50 [8] was over 25 µM. It also gave a TGI [8] of over 25 µM, a GI50 [9] of over 25 µM and a TGI [9] of over 25 µM. It also gave a GI50 [10] of 22.6 µM, a TGI [10] of over 25 µM and a GI50 [11] of over 25 µM. It also gave a TGI [11] of over 25 µM, a GI50 [12] of over 25 µM and a TGI [12] of over 25 µM. The GI50 [13] was 5.1 µM, the TGI [13] was 16.7 µM and the GI50 [14] was over 25 µM. It also gave a TGI [14] of over 25 µM, a GI50 [15] of over 25 µM and a TGI [15] of over 25 µM. The GI50 [16] was over 25 µM, the TGI [16] was over 25 µM and the GI50 [17] was over 25 µM. The TGI [17] was over 25 µM, the GI50 [18] was over 25 µM and the TGI [18] was over 25 µM. It also gave a GI50 [19] of over 25 µM, a TGI [19] of over 25 µM and a GI50 [20] of over 25 µM. The TGI [20] was over 25 µM, the GI50 [21] was over 25 µM and the TGI [21] was over 25 µM. The GI50 [22] was over 25 µM, the TGI [22] was over 25 µM and the GI50 [23] was over 25 µM. For the same compound, the TGI [23] was over 25 µM, the GI50 [24] was over 25 µM and the TGI [24] was over 25 µM. For the same compound, the GI50 [25] was over 25 µM, the TGI [25] was over 25 µM and the GI50 [26] was over 25 µM. It also gave a TGI [26] of over 25 µM, a GI50 [27] of over 25 µM and a TGI [27] of over 25 µM. The GI50 [28] was over 25 µM, the TGI [28] was over 25 µM and the GI50 [29] was over 25 µM. The TGI [29] was over 25 µM, the GI50 [30] was over 25 µM and the TGI [30] was over 25 µM. For the same compound, the GI50 [31] was over 25 µM, the TGI [31] was over 25 µM and the GI50 [32] was over 25 µM. The TGI [32] was over 25 µM, the GI50 [33] was over 25 µM and the TGI [33] was over 25 µM. For the same compound, the GI50 [34] was over 25 µM, the TGI [34] was over 25 µM and the GI50 [35] was over 25 µM. It also gave a TGI [35] of over 25 µM, a GI50 [36] of over 25 µM and a TGI [36] of over 25 µM. For the same compound, the GI50 [37] was over 25 µM, the TGI [37] was over 25 µM and the GI50 [38] was over 25 µM. For the same compound, the TGI [38] was over 25 µM, the GI50 [39] was over 25 µM and the TGI [39] was over 25 µM. The GI50 [40] was over 25 µM, the TGI [40] was over 25 µM and the GI50 [41] was over 25 µM. It also gave a TGI [41] of over 25 µM, a GI50 [42] of over 25 µM and a TGI [42] of over 25 µM. For the same compound, the GI50 [43] was over 25 µM, the TGI [43] was over 25 µM and the GI50 [44] was over 25 µM. It also gave a TGI [44] of over 25 µM, a GI50 [45] of over 25 µM and a TGI [45] of over 25 µM. It also gave a GI50 [46] of over 25 µM, a TGI [46] of over 25 µM and a GI50 [47] of over 25 µM. The TGI [47] was over 25 µM, the GI50 [48] was over 25 µM and the TGI [48] was over 25 µM. For the same compound, the GI50 [49] was over 25 µM, the TGI [49] was over 25 µM and the GI50 [50] was over 25 µM. The TGI [50] was over 25 µM, the GI50 [51] was over 25 µM and the TGI [51] was over 25 µM. For the same compound, the GI50 [52] was over 25 µM, the TGI [52] was over 25 µM and the GI50 [53] was over 25 µM. For the same compound, the TGI [53] was over 25 µM, the GI50 [54] was over 25 µM and the TGI [54] was over 25 µM. For the same compound, the GI50 [55] was over 25 µM, the TGI [55] was over 25 µM and the GI50 [56] was over 25 µM. For the same compound, the TGI [56] was over 25 µM.
